# Source: patent publication US9156796B2, “Benzoimidazole-carboxylic acid amide derivatives as APJ receptor modulators” (SANOFI, priority 2013, dated 2015)
# Target: T1, human apelin receptor (Homo sapiens, UniProt P35414)
# T1 construct: expressed in transfected cells
# T1 sequence (P35414 1-380): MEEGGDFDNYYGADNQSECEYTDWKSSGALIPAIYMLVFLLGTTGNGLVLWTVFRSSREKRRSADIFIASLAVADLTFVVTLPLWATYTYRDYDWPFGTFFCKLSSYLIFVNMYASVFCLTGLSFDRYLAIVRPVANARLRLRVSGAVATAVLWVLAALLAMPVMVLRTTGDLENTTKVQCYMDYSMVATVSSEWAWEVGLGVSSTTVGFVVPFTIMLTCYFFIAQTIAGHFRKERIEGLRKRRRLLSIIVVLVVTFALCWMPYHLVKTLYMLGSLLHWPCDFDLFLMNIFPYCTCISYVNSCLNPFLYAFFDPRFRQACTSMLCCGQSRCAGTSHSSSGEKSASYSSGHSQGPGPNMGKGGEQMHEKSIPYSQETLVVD
# Experiment: Determination of agonism on the human apelin receptor by a calcium fluorescence assay (FLIPR)
# Format: cell-based
# Conditions: HEK293 cells stably transfected with human apelin receptor and Giaq protein, Fluo-4 calcium fluorescence, read-out: EC50 (APJ agonism)
# Text: Determination of Agonism on the Human Apelin Receptor by a Calcium Fluorescence Assay (FLIPR)
# The assay is based on the detection of intracellular calcium changes detected by the selective, calcium-chelating dye Fluo-4 (Molecular Probes). A large fluorescence intensity increase is observed upon calcium association with Fluo-4. The dye is delivered to the cell interior using an acetoxymethylester form of Fluo-4, where the intracellular esterase activity results in the charged species being released and trapped within the cytoplasm of the cell. […] By co-expressing the human apelin receptor and a promiscuous Giaq protein, agonism of the apelin receptor couples to phospholipase-C resulting in intracellular calcium mobilization.
# The HEK293 cells were stably transfected with the human apelin receptor and the Giaq protein. Cells were selected and maintained in a log phase of growth at 37° and 5% CO2 in the Iscove's minimal essential medium, 10% fetal calf serum, 1× Penicillin-Streptomycin, 400 μg/mL G418. One day prior the assay, cells were passaged by accutase and plated at a density of 50,000 cells/well onto a 96-well plates with black border but clear bottom (Costar, cat#3904) in a final volume of 200 μl growth medium.
# In order to load the cells the next day with the calcium-sensitive dye, growth medium was carefully replaced by dye solution (100 μl/well) containing Fluo-4 (4 μM) in basic measurement buffer (135 mM NaCl, 5 mM KCl, 1 mM magnesium sulphate, 5 mM glucose, 20 mM Hepes, 2.5 mM probenecid; adjusted to pH 7.4). Cells were incubated for 1 h at 37° C., and then washed 3× with buffer containing no dye. The washer was programmed to leave a remaining volume of 150 μl after the third wash in the plate.
# During the dye-loading of the cells, a serial compound dilution was performed in a separate 96-well plate with overall 4× increased concentrations. Small aliquots of DMSO stock solutions of the compounds (10 mM in 100% DMSO were aliquoted into 150 μl buffer in the first rows of the 96-well plates, and then serially diluted by a factor of 1:3 transferring each time 30 μl to the next rows already containing 60 μl buffer. All compounds were tested in a least 7 concentrations, each condition was performed in triplicates. As comparator, we used freshly prepared apelin-13 solutions, for which also a concentration-response curve was determined at each measurement day. The compound plate was incubated for 10 min after the final dilutions steps at 37° C. before transferring the dye-loaded cell plate and the compound plate into a FLIPR Tetra reader (Molecular Devices). Measurement within this reader started by pipetting the agonist solution (50 μl) on the cell plate. Overall perform 60 reads were performed with an interval of 2 sec. The maximum of the fluorescence transient was used to calculate the agonistic response of the cells. In order to normalize this response, which may vary from plate to plate we set the maximum fluorescence achieved by 1 μM apelin-13 on this plate as 100%.
# EC-50 values for apelin-13 and the apelin receptor compounds described in this patent were determined by standard algorithms using a specific software package.
row,EC50 [nM],Compound
1,152,"C[C@@H]1CCCC[C@H]1n1c(Cc2cccs2)nc2cc(C(=O)NC(CC(=O)O)CC3CCCCC3)ccc21 (single isomer, unassigned) [Example 456]"
2,1460,"C[C@@H]1CCCC[C@H]1n1c(Cc2cccs2)nc2cc(C(=O)NC(CC(=O)O)CC3CCCCC3)ccc21 (single isomer, unassigned) [Example 457]"
3,124,"CCCC(CC(=O)O)NC(=O)c1ccc2c(c1)nc(Cc1cccs1)n2[C@@H]1CCCC[C@H]1C (single isomer, unassigned) [Example 458]"
4,122,"CCCCC(CC(=O)O)NC(=O)c1ccc2c(c1)nc(Cc1cccs1)n2[C@@H]1CCCC[C@H]1C (single isomer, unassigned) [Example 460]"
5,3430,"CCCCC(CC(=O)O)NC(=O)c1ccc2c(c1)nc(Cc1cccs1)n2[C@@H]1CCCC[C@H]1C (single isomer, unassigned) [Example 461]"
6,137,"C[C@@H]1CCCC[C@H]1n1c(Cc2cccs2)nc2cc(C(=O)NC(CC(=O)O)C3CCCCC3)ccc21 (single isomer, unassigned) [Example 462]"
7,2480,"C[C@@H]1CCCC[C@H]1n1c(Cc2cccs2)nc2cc(C(=O)NC(CC(=O)O)C3CCCCC3)ccc21 (single isomer, unassigned) [Example 463]"
8,126,"CCC(CC)n1c(Cc2cccs2)nc2cc(C(=O)NC(CC(C)C)C(C)(C)C(=O)O)ccc21 (single isomer, unassigned) [Example 464]"
9,948,"CCC(CC)n1c(Cc2cccs2)nc2cc(C(=O)NC(CC(C)C)C(C)(C)C(=O)O)ccc21 (single isomer, unassigned) [Example 465]"
10,4720,"CCCC(NC(=O)c1ccc2c(c1)nc(Cc1cccs1)n2C(CC)CC)C(C)(C)C(=O)O (single isomer, unassigned) [Example 466]"
11,265,"CCCC(NC(=O)c1ccc2c(c1)nc(Cc1cccs1)n2C(CC)CC)C(C)(C)C(=O)O (single isomer, unassigned) [Example 467]"
12,719,"CCCCC(NC(=O)c1ccc2c(c1)nc(Cc1cccs1)n2C(CC)CC)C(C)(C)C(=O)O (single isomer, unassigned) [Example 468]"
13,60,"CCCCC(NC(=O)c1ccc2c(c1)nc(Cc1cccs1)n2C(CC)CC)C(C)(C)C(=O)O (single isomer, unassigned) [Example 469]"
14,235,"CCCC(CCO)NC(=O)c1ccc2c(c1)nc(Cc1cccs1)n2C(CC)CC (single isomer, unassigned) [Example 470]"
15,5020,"CCCC(CCO)NC(=O)c1ccc2c(c1)nc(Cc1cccs1)n2C(CC)CC (single isomer, unassigned) [Example 471]"
16,359,"CCC(CC)n1c(Cc2cccs2)nc2cc(C(=O)NC3(C(=O)O)CCCCCC3)ccc21 [Example 1, 1-{[1-(1-Ethyl-propyl)-2-thiophen-2-ylmethyl-1H-benzoimidazole-5-carbonyl]-amino}-cycloheptanecarboxylic acid]"

row,EC50 [nM],Compound
1,20100,"CCC(CC)n1c(Cc2ccco2)nc2cc(C(=O)NC(C)(Cc3ccccc3)C(=O)O)ccc21 (stereo not shown) [Example 2, 2-{[1-(1-Ethyl-propyl)-2-furan-2-ylmethyl-1H-benzoimidazole-5-carbonyl]-amino}-2-methyl-3-phenyl-propionic acid]"
2,1200,"CCC(CC)n1c(CC2CCCC2)nc2cc(C(=O)N[C@@H](CC3CCCCC3)C(=O)O)ccc21 [Example 3, (S)-3-Cyclohexyl-2-{[2-cyclopentylmethyl-1-(1-ethyl-propyl)-1H-benzoimidazole-5-carbonyl]-amino}-propionic acid]"
3,16800,"CCC(CC)n1c(Cc2cccs2)nc2cc(C(=O)NC(C)(Cc3ccccc3)C(=O)O)ccc21 (stereo not shown) [Example 4, 2-{[1-(1-Ethyl-propyl)-2-thiophen-2-ylmethyl-1H-benzoimidazole-5-carbonyl]-amino}-2-methyl-3-phenyl-propionic acid]"
4,9870,"CCC(CC)n1c(Cc2cccs2)nc2cc(C(=O)NC(C)(C(=O)O)C(C)C)ccc21 (stereo not shown) [Example 5, 2-{[1-(1-Ethyl-propyl)-2-thiophen-2-ylmethyl-1H-benzoimidazole-5-carbonyl]-amino}-2,3-dimethyl-butyric acid]"
5,3820,"CCC(CC)n1c(Cc2cccs2)nc2cc(C(=O)NC3(C(=O)O)CCCC3)ccc21 [Example 6, 1-{[1-(1-Ethyl-propyl)-2-thiophen-2-ylmethyl-1H-benzoimidazole-5-carbonyl]-amino}-cyclopentanecarboxylic acid]"
6,44300,"CCC(CC)n1c(Cc2cccs2)nc2cc(C(=O)NC(CC)(C(=O)O)c3ccccc3)ccc21 (stereo not shown) [Example 7, 2-{[1-(1-Ethyl-propyl)-2-thiophen-2-ylmethyl-1H-benzoimidazole-5-carbonyl]-amino}-2-phenyl-butyric acid]"
7,107,"CCC(CC)n1c(Cc2ccco2)nc2cc(C(=O)N[C@@H](CC3CCCCC3)C(=O)O)ccc21 [Example 8, (S)-3-Cyclohexyl-2-{[1-(1-ethyl-propyl)-2-furan-2-ylmethyl-1H-benzoimidazole-5-carbonyl]-amino}-propionic acid]"
8,585,"CCC(CC)n1c(Cc2ccco2)nc2cc(C(=O)N[C@H](CC3CCCCC3)C(=O)O)ccc21 [Example 9, (R)-3-Cyclohexyl-2-{[1-(1-ethyl-propyl)-2-furan-2-ylmethyl-1H-benzoimidazole-5-carbonyl]-amino}-propionic acid]"
9,1700,"CCC(CC)n1c(CC2CCCC2)nc2cc(C(=O)N[C@H](CC3CCCCC3)C(=O)O)ccc21 [Example 10, (R)-3-Cyclohexyl-2-[{2-cyclopentylmethyl-1-(1-ethyl-propyl)-1H-benzoimidazole-5-carbonyl]-amino}-propionic acid]"
10,65,"CCC(CC)n1c(Cc2cccs2)nc2cc(C(=O)NC(CC3CCCC3)C(=O)O)ccc21 (stereo not shown) [Example 11, 3-Cyclopentyl-2-{[1-(1-ethyl-propyl)-2-thiophen-2-ylmethyl-1H-benzoimidazole-5-carbonyl]-amino}-propionic acid]"
11,818,"CCC(CC)n1c(Cc2cccs2)nc2cc(C(=O)NC(C)(CC(C)C)C(=O)O)ccc21 (stereo not shown) [Example 12, 2-{[1-(1-Ethyl-propyl)-2-thiophen-2-ylmethyl-1H-benzoimidazole-5-carbonyl]-amino}-2,4-dimethyl-pentanoic acid]"
12,535,"CCC(CC)n1c(Cc2ccco2)nc2cc(C(=O)NC(C)(CC(C)C)C(=O)O)ccc21 (stereo not shown) [Example 13, 2-{[1-(1-Ethyl-propyl)-2-furan-2-ylmethyl-1H-benzoimidazole-5-carbonyl]-amino}-2,4-dimethyl-pentanoic acid]"
13,1340,"CCC(CC)n1c(Cc2ccco2)nc2cc(C(=O)NC(C)(CCSC)C(=O)O)ccc21 (stereo not shown) [Example 14, 2-{[1-(1-Ethyl-propyl)-2-furan-2-ylmethyl-1H-benzoimidazole-5-carbonyl]-amino}-2-methyl-4-methylsulfanyl-butyric acid]"
14,254,"CC1CCCCC1n1c(Cc2cccs2)nc2cc(C(=O)N[C@@H](CC3CCCCC3)C(=O)O)ccc21 (stereo partly drawn) [Example 15, (S)-3-Cyclohexyl-2-{[1-(2-methyl-cyclohexyl)-2-thiophen-2-ylmethyl-1H-benzoimidazole-5-carbonyl]-amino}-propionic acid]"
15,117,"CCCC[C@H](NC(=O)c1ccc2c(c1)nc(Cc1cccs1)n2C1CCCCC1C)C(=O)O (stereo partly drawn) [Example 16, (S)-2-{[1-(2-Methyl-cyclohexyl)-2-thiophen-2-ylmethyl-1H-benzoimidazole-5-carbonyl]-amino}-hexanoic acid]"
